These results are taken from PMC9898996 (Bioorganic & medicinal chemistry, 2022).

Usually Emax stands for the maximal effect, on the per cent scale that the assay sets.

SMILES strings stand for the structures.

The target of data set [1] is T1, human D2 receptor (Homo sapiens, UniProt P14416).
A further data set addresses rat D2L receptor (Rattus norvegicus, UniProt P61169). The class given is binding.
The target of the next data set is α-syn (Homo sapiens, UniProt P37840). Put plainly: ThT assay of α-syn aggregation induced by seeding with 0.5% PFFs. To be noted: 1.25 mg/mL α-syn + 0.5% PFFs, 30D without shaking, drug 172.9 μM. The data set is classed as biochemical.
The target of data set [2] is T1, human D2 receptor. Conditions: [35S]GTPγS, D2 receptors. On the technique in general: GTPγS is a poorly hydrolysed GTP analogue; its binding reports G protein activation.
The subject of a further data set is PC12 cells. In words: MTT viability of PC12 cells treated with α-syn seeded samples. Conditions: samples collected at 0D; drug 20 μM, 24 h. The data set is classed as cell-based.

Sequence of rat D2L receptor (P61169 whole entry): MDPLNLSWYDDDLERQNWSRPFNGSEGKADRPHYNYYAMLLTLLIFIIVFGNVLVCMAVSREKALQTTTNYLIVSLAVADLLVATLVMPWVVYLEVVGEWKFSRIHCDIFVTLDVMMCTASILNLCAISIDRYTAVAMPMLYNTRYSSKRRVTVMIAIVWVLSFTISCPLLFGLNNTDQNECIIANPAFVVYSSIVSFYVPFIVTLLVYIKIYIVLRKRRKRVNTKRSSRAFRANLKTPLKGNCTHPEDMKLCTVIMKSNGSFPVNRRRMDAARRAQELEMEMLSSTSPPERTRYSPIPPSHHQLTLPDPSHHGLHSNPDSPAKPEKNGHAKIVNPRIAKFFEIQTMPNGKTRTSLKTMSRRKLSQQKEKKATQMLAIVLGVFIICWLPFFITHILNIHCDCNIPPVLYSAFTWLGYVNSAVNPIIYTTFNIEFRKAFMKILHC
T1 sequence (P14416 whole entry): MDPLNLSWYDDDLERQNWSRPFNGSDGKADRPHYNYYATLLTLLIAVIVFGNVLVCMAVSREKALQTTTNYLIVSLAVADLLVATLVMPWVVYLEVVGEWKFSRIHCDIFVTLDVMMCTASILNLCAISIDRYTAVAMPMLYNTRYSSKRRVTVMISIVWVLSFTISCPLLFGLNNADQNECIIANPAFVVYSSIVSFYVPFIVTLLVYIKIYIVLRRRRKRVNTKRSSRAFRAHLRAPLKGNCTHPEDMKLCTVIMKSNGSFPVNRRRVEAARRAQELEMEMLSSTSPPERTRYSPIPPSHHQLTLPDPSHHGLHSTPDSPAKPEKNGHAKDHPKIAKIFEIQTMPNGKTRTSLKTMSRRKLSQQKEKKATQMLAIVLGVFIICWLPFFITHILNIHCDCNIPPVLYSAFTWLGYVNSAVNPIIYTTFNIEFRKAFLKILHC

`CCCN(CCC)C1CCc2c(O)cccc2C1` (single isomer, unassigned; (-)) [(−)-5-OH-DPAT, 5-OH-DPAT] registered an Emax on human D2 receptor [1] of 80 ± 4%.
With `CCCN(CC(=O)N1CCN(C(=O)CN(CCC)[C@H]2CCc3c(O)cccc3C2)CC1)[C@H]1CCc2c(O)cccc2C1` [Compound D-380, (s)-1,1’-(piperazine-1,4-diyl)bis(2-(((s)-5-hydroxy-1,2,3,4-tetrahydronaphthalen-2-yl)(propyl)amino)ethanone)], the “Activity at DA receptors (binding, in words)” value on rat D2L receptor (D2/D3 receptor binding) is on record as “little to no activity”. In addition, the “Inhibition of [3H]spiroperidol binding, D2L” value at rat D2L receptor (at 100 μM, cloned rat D2L in HEK-293 cells) is recorded as “No Inhibition at 100 μM”.
In the case of `CCCN(CCc1ccc(CCN(CCC)[C@H]2CCc3c(O)cccc3C2)cc1)[C@H]1CCc2c(O)cccc2C1` [Compound D-382, (6s,6’s)-6,6’-(2,2’-(1,4-phenylene)bis(ethane-2,1-diyl))bis(propylazanediyl)bis(5,6,7,8-tetrahydronaphthalen-1-ol)], the “Increase in affinity for D2 receptors compared to D-381” value at rat D2L receptor (binding, D2 receptors) was “greater than threefold increase”.
Take `CCCN(CCc1cc(O)c(CCN(CCC)[C@H]2CCc3nc(N)sc3C2)cc1O)[C@H]1CCc2nc(N)sc2C1` [Compound D-673, 2,5-bis(2-(((S)-2-amino-4,5,6,7-tetrahydrobenzo[d]thiazol-6-yl)(propyl)amino)-ethyl)benzene-1,4-diol]: the “Inhibition of α-syn aggregation (ThT signal)” value at α-syn was “inhibited the aggregation completely”. Also, the “D2 functional potency compared to pramipexole” value on human D2 receptor [2] was “more than 7 fold”. Moreover, in the data set on PC12 cells, the “Toxicity of compound by itself (PC12 viability, MTT)” value was “shows toxicity”.
As for `Br.Br.CCCN(CCc1cc(O)c(CCN(CCC)[C@H]2CCc3c(O)cccc3C2)cc1O)[C@H]1CCc2c(O)cccc2C1` [Compound D-666, 2,5-Bis(2-(((S)-5-hydroxy-1,2,3,4-tetrahydronaphthalen-2-yl)(propyl)amino)ethyl)benzene-1,4-diol], the “Inhibition of α-syn aggregation (ThT signal)” value on α-syn is “inhibited the aggregation completely”. The “Toxicity of compound by itself (PC12 viability, MTT)” value with PC12 cells is on record as “do not see such toxicity”.
